Assay results reported in the supplement of paper PMC10307832.

How the values were obtained:
Assay in all cases: relative viability (nuclei count vs DMSO), 5 days (fraction); higher = more cells survive
VX-11e + Decitabine = compound: CC1=CN=C(N=C1C2=CNC(=C2)C(=O)N[C@H](CO)C3=CC(=CC=C3)Cl)NC4=C(C=C(C=C4)F)Cl [VX-11e] + Nc1ncn([C@H]2C[C@H](O)[C@@H](CO)O2)c(=O)n1 [Decitabine] (partner 2 µM)
Summary of the method: (§1)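 Lung cancer cell lines in 1536-well plates were dosed by pin tool the day after seeding, either with one drug alone or with a fixed anchor-drug dose plus five library-drug doses (not always all listed) in √10 steps. After 5 days, cells were fixed and their nuclei stained in one step (final 0.05% Triton X-100, 1% formaldehyde, 1 ug/ml Hoechst), then counted on 4× images. Relative viability is the nuclei count in treated wells divided by that in vehicle wells. Values are medians of duplicate plates.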

VX-11e + Dasatinib = compound: CC1=CN=C(N=C1C2=CNC(=C2)C(=O)N[C@H](CO)C3=CC(=CC=C3)Cl)NC4=C(C=C(C=C4)F)Cl [VX-11e] + Cc1nc(Nc2ncc(C(=O)Nc3c(C)cccc3Cl)s2)cc(N2CCN(CCO)CC2)n1 [Dasatinib] (partner 0.075 µM)
Summary of the method: as §1

VX-11e + Luminespib = compound: CC1=CN=C(N=C1C2=CNC(=C2)C(=O)N[C@H](CO)C3=CC(=CC=C3)Cl)NC4=C(C=C(C=C4)F)Cl [VX-11e] + CCNC(=O)c1noc(-c2cc(C(C)C)c(O)cc2O)c1-c1ccc(CN2CCOCC2)cc1 [Luminespib] (partner 0.01 µM)
Summary of the method: as §1

VX-11e + Foretinib = compound: CC1=CN=C(N=C1C2=CNC(=C2)C(=O)N[C@H](CO)C3=CC(=CC=C3)Cl)NC4=C(C=C(C=C4)F)Cl [VX-11e] + COc1cc2c(Oc3ccc(NC(=O)C4(C(=O)Nc5ccc(F)cc5)CC4)cc3F)ccnc2cc1OCCCN1CCOCC1 [Foretinib] (partner 0.25 µM)
Summary of the method: as §1

Cell Line	relative viability (VX-11e + Decitabine; first compound 0.04 µM)	relative viability (VX-11e + Decitabine; first compound 0.1265 µM)	relative viability (VX-11e + Decitabine; first compound 0.4 µM)	relative viability (VX-11e + Decitabine; first compound 1.265 µM)	relative viability (VX-11e + Decitabine; first compound 4 µM)	relative viability (VX-11e + Dasatinib; first compound 0.04 µM)	relative viability (VX-11e + Dasatinib; first compound 0.1265 µM)	relative viability (VX-11e + Dasatinib; first compound 0.4 µM)	relative viability (VX-11e + Dasatinib; first compound 1.265 µM)	relative viability (VX-11e + Dasatinib; first compound 4 µM)	relative viability (VX-11e + Luminespib; first compound 0.04 µM)	relative viability (VX-11e + Luminespib; first compound 0.1265 µM)	relative viability (VX-11e + Luminespib; first compound 0.4 µM)	relative viability (VX-11e + Luminespib; first compound 1.265 µM)	relative viability (VX-11e + Luminespib; first compound 4 µM)	relative viability (VX-11e + Foretinib; first compound 0.04 µM)	relative viability (VX-11e + Foretinib; first compound 0.1265 µM)	relative viability (VX-11e + Foretinib; first compound 4 µM)	relative viability (VX-11e + Foretinib; first compound 0.4 µM)	relative viability (VX-11e + Foretinib; first compound 1.265 µM)
201T	0.868	0.84	0.831	0.831	0.758	0.58	0.536	0.486	0.502	0.495	1.06	1.06	1.09	1.05	0.918	1.12	0.959	1.03	–	–
A549	–	0.264	0.0929	0.249	0.202	–	–	–	–	–	–	–	–	–	–	1.02	0.973	0.0913	0.922	0.321
A-427	0.559	0.518	0.569	0.645	0.443	0.751	0.574	0.488	0.232	0.114	1.05	0.865	0.642	0.687	0.483	1.14	1.01	0.342	0.835	0.805
ABC-1	1.11	–	0.992	1.06	0.977	0.72	0.551	0.468	0.561	0.497	–	–	0.495	0.436	0.518	1.48	0.996	0.826	0.899	1.16
BEN	0.505	0.645	0.712	0.573	0.654	–	0.277	0.399	0.236	0.252	–	0.241	0.475	0.376	0.264	–	0.633	0.557	0.966	0.451
CAL-12T	–	–	–	–	–	0.466	0.34	0.249	0.243	0.111	0.392	0.434	0.462	0.433	0.276	1.1	1.03	0.561	1.07	1.07
COR-L23	0.374	0.417	0.396	0.426	0.276	0.486	0.453	0.442	0.355	0.208	0.787	0.577	0.5	0.532	0.234	1.1	0.939	0.373	0.964	0.749
COR-L 105	0.685	0.701	0.712	0.705	0.333	0.316	0.344	0.33	0.198	0.229	0.978	0.391	0.825	0.592	0.375	1.39	1.1	0.653	0.963	0.562
Calu-6	–	–	–	–	–	–	–	–	–	–	–	–	–	–	–	0.969	0.869	0.103	0.829	0.397
ChaGo-K-1	0.534	0.495	0.511	0.51	0.5	0.516	0.587	0.584	0.654	0.557	0.633	0.646	0.561	0.688	0.507	0.878	0.855	0.928	0.941	0.923
EBC-1	–	–	–	–	–	–	–	–	–	–	–	–	–	–	–	0.104	0.107	0.109	0.0992	0.111
EKVX	0.331	0.397	0.298	0.394	0.232	0.687	0.482	0.401	0.489	0.247	0.714	0.894	0.723	0.85	0.52	0.765	0.927	0.466	0.812	0.675
EMC-BAC-2	1.02	0.958	0.653	1	0.588	0.303	0.291	0.437	0.509	0.407	1.21	1.19	1.2	1.19	0.924	1.05	0.921	0.697	1.08	0.982
EPLC-272H	0.331	0.337	–	0.29	0.178	0.328	0.269	–	0.334	0.2	0.173	0.302	–	0.293	0.148	0.622	0.559	0.261	–	0.361
H3255	0.667	0.603	0.482	0.48	0.332	0.37	0.38	0.538	0.281	0.347	0.773	0.963	0.819	0.686	0.89	0.734	0.963	0.948	0.87	0.918
HARA	0.491	0.417	0.38	0.365	0.467	0.306	0.2	0.273	0.248	0.157	0.677	0.609	0.637	0.695	0.297	0.857	0.856	0.343	0.841	0.734
HCC-15	0.641	0.603	0.225	0.338	0.274	0.66	0.52	–	0.243	0.148	0.264	0.363	0.207	0.18	0.175	1.07	0.897	0.357	–	0.558
HCC-44	0.995	0.896	0.939	0.904	1.06	–	–	–	–	–	1.17	0.96	0.364	0.556	0.916	–	–	–	–	–

Cell Line	relative viability (VX-11e + Decitabine; first compound 0.04 µM)	relative viability (VX-11e + Decitabine; first compound 0.1265 µM)	relative viability (VX-11e + Decitabine; first compound 0.4 µM)	relative viability (VX-11e + Decitabine; first compound 1.265 µM)	relative viability (VX-11e + Decitabine; first compound 4 µM)	relative viability (VX-11e + Dasatinib; first compound 0.04 µM)	relative viability (VX-11e + Dasatinib; first compound 0.1265 µM)	relative viability (VX-11e + Dasatinib; first compound 0.4 µM)	relative viability (VX-11e + Dasatinib; first compound 1.265 µM)	relative viability (VX-11e + Dasatinib; first compound 4 µM)	relative viability (VX-11e + Luminespib; first compound 0.04 µM)	relative viability (VX-11e + Luminespib; first compound 0.1265 µM)	relative viability (VX-11e + Luminespib; first compound 0.4 µM)	relative viability (VX-11e + Luminespib; first compound 1.265 µM)	relative viability (VX-11e + Luminespib; first compound 4 µM)	relative viability (VX-11e + Foretinib; first compound 0.04 µM)	relative viability (VX-11e + Foretinib; first compound 0.1265 µM)	relative viability (VX-11e + Foretinib; first compound 4 µM)	relative viability (VX-11e + Foretinib; first compound 0.4 µM)	relative viability (VX-11e + Foretinib; first compound 1.265 µM)
HCC-78	0.721	0.698	0.676	0.775	0.786	–	0.412	0.411	0.382	0.44	–	–	–	–	–	–	0.54	0.496	0.542	0.514
HCC-366	0.402	0.348	–	0.322	0.217	0.736	0.612	–	0.434	0.241	–	–	–	–	–	1.01	0.876	0.701	–	0.851
HCC-827	0.266	0.32	0.342	0.431	0.324	0.297	0.292	0.257	0.406	0.246	0.605	0.422	0.616	0.826	0.477	1.07	1.09	0.739	1.04	1.13
HOP-62	0.223	0.239	0.213	0.248	0.312	0.685	0.652	0.663	0.457	0.242	1.01	0.843	0.946	0.687	0.406	1.22	1.03	0.589	1.16	0.859
IA-LM	–	–	–	–	–	–	–	–	–	–	–	–	–	–	–	1.09	1.17	0.0917	1.22	0.486
LC-2-ad	0.798	0.776	0.703	0.872	0.654	0.48	0.402	0.326	0.289	0.324	1.18	0.947	0.633	0.883	0.815	0.883	0.822	0.673	0.983	0.747
LCLC-97TM1	0.259	0.209	0.221	–	0.171	1	0.728	0.793	0.547	0.301	0.781	0.693	0.615	0.393	0.263	0.955	0.811	0.332	0.826	0.455
LCLC-103H	0.726	0.701	0.726	0.742	0.608	0.45	0.435	0.545	0.446	0.444	0.98	0.698	1.03	0.83	0.785	0.867	0.694	0.67	0.858	0.656
LK-2	0.179	0.33	0.177	0.208	0.207	0.25	0.344	0.244	0.155	0.257	0.197	0.198	0.193	0.182	0.183	1.1	1.3	0.817	1.18	0.643
LOU-NH91	0.829	0.777	–	0.85	0.768	0.534	0.514	0.372	0.489	0.471	0.394	0.396	0.283	0.341	0.312	0.92	0.896	0.782	0.577	0.94
NCI-H522	0.641	0.648	0.648	0.599	0.573	0.647	0.849	0.719	0.72	0.605	1.23	1.28	1.05	0.82	0.832	–	–	–	–	–
NCI-H1299	–	–	–	–	–	–	–	–	–	–	–	–	–	–	–	1.2	1.08	0.52	1.11	1.23
NCI-H1563	–	–	–	–	–	0.417	0.47	0.506	0.411	0.449	0.522	0.555	0.488	0.508	0.465	1.02	0.832	0.763	0.862	0.922
NCI-H1648	–	0.584	0.491	0.654	0.42	–	–	–	–	–	–	–	–	–	–	–	–	–	–	–
NCI-H1703	–	–	–	–	–	–	–	–	–	–	–	–	–	–	–	0.383	0.33	0.28	–	0.317
NCI-H1792	–	0.493	–	0.619	0.328	0.894	0.679	0.572	0.729	0.326	0.419	0.351	0.216	0.417	0.225	–	–	–	–	–
NCI-H2228	–	–	–	–	–	0.591	0.578	–	0.351	0.188	0.145	0.138	–	0.148	0.12	0.79	0.936	0.275	–	0.482
